# Test results reported in patent US20240317721A1, “PYRAZOLYL DERIVATIVES AS INHIBITORS OF THE KRAS MUTANT PROTEIN” (NOVARTIS AG, priority 2021, published 2024).
# Biological target: KRasG12C (M1-K169, biotinylated on the N-terminus) (Homo sapiens (Human), UniProt P01116, G12C)
# Test: Covalent competition assay: scintillation proximity assay (SPA) quantifying covalent modification of KRASG12C
# Type: binding
# Conditions: competition with radiolabeled covalent probe (Compound B/Compound A), 2 hours incubation, 10 nM KRasG12C
# Description: Cells were harvested by centrifugation and frozen at −80° C. until further processing. […] The cells were lysed by 4 passages through an Avestin Emulsiflex at about 20000 psi and insoluble debris removed by centrifugation and filtered through a 0.45 µm Durapore membrane (Millipore). […] Eluted protein fractions were analyzed by Novex NuPage 4-12% PAGE. […] The protein in the flow through was subjected to a final polishing step on a HiLoad 16/60 Superdex 200 prep grade size-exclusion column pre-equilibrated with SEC-buffer (20 mM HEPES pH 7.4, 150 mM NaCl, 5 mM MgCl2, 1 µM GDP). Positive fractions were determined by PAGE (Novex NuPage 4-12% BisTris) analysis.
# A scintillation proximity assay (SPA) was used to determine the potency of the compounds.
# This assay measures the ability of the test compound to compete with the radiolabeled covalent probe for binding to and covalently modify KRASG12C.
# (see above for synthesis of Compound A and Compound B). A serial dilution of the compounds to be tested is mixed with a fixed concentration of the radiolabeled covalent probe before incubation with KRASG12C:GDP as described below. KRASG12C can either be bound by the radiolabeled covalent probe (Compound B), resulting in light being emitted from the beads, or bound by covalent test compound preventing signal generation.
# A 1/20 isotopic dilution of labeled (Compound B) and non-labeled covalent (Compound A) probe was prepared and added to all wells on the plate. The reaction was started by addition of KRasG12C (M1-K169, biotinylated on the N-terminus) to the compounds and incubated for 2 hours with continuous agitation allowing for full modification of KRasG12C with probe or test compounds. Final concentrations in an assay volume of 40 μL were 10 nM KRasG12C, 25 nM radio-ligand and 475 nM unlabelled ligand. The assay buffer contained 20 mM Tris-HCl pH 7.5 (Invitrogen), 150 mM NaCl (Sigma Aldrich), 0.1 mM MgCl2 (Sigma Aldrich), and 0.01% Tween-20 (Sigma Aldrich). Following addition of 50 μL of a 400 μg/mL suspension of streptavidin-coated YSi beads (Perkin Elmer), plates were incubated for a further 30 min with continuous agitation before reading the plates on a scintillation counter (Topcount NXT 384 (Packard).
# Evaluation was carried out using assay data analysis software (such as the standard Novartis in-house Helios software application, Novartis Institutes for BioMedical Research, unpublished) using the methods described in Formenko et al., Robust Regression for high-throughput screening, Computer Methods and Programs in Biomedicine, 2006, 82, 31-37. Following normalization of activity values for the wells to % inhibition (% inhibition=[(high control−sample)/(high control−low control)]×100), IC50 fitting was carried out from the duplicate determinations present on each plate according to Formenko et al., 2006.
# Evaluation can also be carried out using commercially available software which is designed to derive IC50 values using 4-parameter fits (e.g. GraphPad Prism, XL fit).
row,IC50,Compound
1,0.3 µM,"C=CC(=O)N1CC2(CC(n3nc(N4CCC(N(C)C(=O)COC)CC4(C)C)c(-c4c(Cl)c(C)cc5[nH]ncc45)c3C)C2)C1 (single isomer, unassigned) [Example 97a, N-(1-(1-(2-acryloyl-2-azaspiro[3.3]heptan-6-yl)-4-(5-chloro-6-methyl-1H-indazol-4-yl)-5-methyl-1H-pyrazol-3-yl)-2,2-dimethylpiperidin-4-yl)-2-methoxy-N-methylacetamide]"
2,> 5 µM,"C=CC(=O)N1CC2(CC(n3nc(N4CCN(C(=O)COC)CC45CCC5)c(-c4c(Cl)c(C)cc5[nH]ncc45)c3C)C2)C1 (single isomer, unassigned) [Example 123a, 1-(6-(4-(5-chloro-6-methyl-1H-indazol-4-yl)-3-(8-(2-methoxyacetyl)-5,8-diazaspiro[3.5]nonan-5-yl)-5-methyl-1H-pyrazol-1-yl)-2-azaspiro[3.3]heptan-2-yl)prop-2-en-1-one]"
3,0.829 µM,"C=CC(=O)N1CC2(CC(n3nc(N4CCC5C(=O)N(C)CC5C4)c(-c4c(Cl)c(C)cc5[nH]ncc45)c3C)C2)C1 (stereo not drawn) [Example 17, (3aS*,7aS*)-5-(1-(2-acryloyl-2-azaspiro[3.3]heptan-6-yl)-4-(5-chloro-6-methyl-1H-indazol-4-yl)-5-methyl-1H-pyrazol-3-yl)-2-methyloctahydro-1H-pyrrolo[3,4-c]pyridin-1-one]"
4,0.02 µM,"C=CC(=O)N1CC2(CC(n3nc(N4CCC(n5ccnc5)CC4(C)C)c(-c4c(Cl)c(C)cc5[nH]ncc45)c3C)C2)C1 (single isomer, unassigned) [Example 44b, 1-(6-(3-(4-(1H-imidazol-1-yl)-2,2-dimethylpiperidin-1-yl)-4-(5-chloro-6-methyl-1H-indazol-4-yl)-5-methyl-1H-pyrazol-1-yl)-2-azaspiro[3.3]heptan-2-yl)prop-2-en-1-one]"

# The next lines start with the compound.
row,Compound,IC50
1,"C=CC(=O)N1CC2(CC(n3nc(N4CC[C@@H](CN5CCN(C6COC6)C[C@@H]5COC)CC4(C)C)c(-c4c(Cl)c(Cl)cc5[nH]ncc45)c3C)C2)C1 (single isomer, unassigned) [Example 320b]",< 0.005 µM
2,"C=CC(=O)N1CC2(CC(n3nc(N4CC[C@@H](CN5CCN6CCOC[C@H]6C5)CC4(C)C)c(-c4c(Cl)c(Cl)cc5[nH]ncc45)c3C)C2)C1 (single isomer, unassigned) [Example 288a]",4.9 µM
3,"C=CC(=O)N1CC2(CC(n3nc(N4CC[C@@H](CN5CCC56COC6)CC4(C)C)c(-c4c(Cl)c(Cl)cc5[nH]ncc45)c3C)C2)C1 (single isomer, unassigned) [Example 307a]",> 5 µM
4,"C=CC(=O)N1CC2(CC(n3nc(N4CC[C@@H](CN5CCCC6CN(C)C(=O)C65)CC4(C)C)c(-c4c(Cl)c(Cl)cc5[nH]ncc45)c3C)C2)C1 (single isomer, unassigned) [Example 261a, (4aR*,7aR*)-1-(((R)-1-(1-(2-acryloyl-2-azaspiro[3.3]heptan-6-yl)-4-(5,6-dichloro-1H-indazol-4-yl)-5-methyl-1H-pyrazol-3-yl)-2,2-dimethylpiperidin-4-yl)methyl)-6-methyloctahydro-7H-pyrrolo[3,4-b]pyridin-7-one]",> 5 µM
5,"C=CC(=O)N1CC2(CC(n3nc(N4CC[C@@H](CN5CCP(C)(=O)CC5)CC4(C)C)c(-c4c(Cl)c(Cl)cc5[nH]ncc45)c3C)C2)C1 (single isomer, unassigned) [Example 269a]",4.3 µM
6,"C=CC(=O)N1CC2(CC(n3nc(N4CCN(C(C)=O)CC4)c(-c4c(Cl)ccc5[nH]ncc45)c3C)C2)C1 (single isomer, unassigned) [Example 36b, 1-(6-(3-(4-acetylpiperazin-1-yl)-4-(5-chloro-1H-indazol-4-yl)-5-methyl-1H-pyrazol-1-yl)-2-azaspiro[3.3]heptan-2-yl)prop-2-en-1-one]",2.4 µM
7,"C=CC(=O)N1CC2(CC(n3nc(N4CC[C@@H](CN5CC6(CCCN6C6COC6)C5)CC4(C)C)c(-c4c(Cl)c(Cl)cc5[nH]ncc45)c3C)C2)C1 (single isomer, unassigned) [Example 272a]",> 5 µM
